Key:
Type in all cases: in vivo
[1] = system: lymphocyte subpopulations in peripheral blood; test: Clinical study: hemogram and immune phenotyping in patients with chronic lymphoid leukosis
Source text: The study was continued in groups of patients with immune cytopenias, multiple myeloma, chronic lymphoid leukosis, lymphocytic lymphomas, lymphosarcomas (55 patients). Special attention was paid to the group of patients with P-cellular lymphoid leukosis. The peculiarity of the leukemic B-lymphocyte clone and its relatively vast representation in the peripheral blood of patients with a pronounced secondary immune deficiency makes B-cellular chronic Lymphoid leukosis a unique model for clinical studies of the effect of an immunomodulator.
Immune phenotyping is the most reliable method to determine the changes of ratios of immunocompetent cells in the peripheral blood and lymphocyte-containing organs. The method allows detection of subpopulations by the presence of cellular differentiating antigen structures on lymphocyte surface. For more trustworthy results, some patients were examined using a flow-type cytoflourimeter and monoclonal antibodies. Taking into account the contingent of the patients, the main surface structures to be examined were the following: CD45++CD14-, CD45+CD14-, CD45+CD14+, CD3+CD19-, CD3-CD19+, CD4+CD8-, CD4-CD8+, CD3+HLA- DR+, CD3+CD16,56+, CD34+, CDS+.
The dynamics of CD4+CD8- and CD4-CD8+ (T-helpers and T-suppressers) and the dynamics of other necessary CD-markers were determined in the course of treatment with H-Ile-Glu-Trp-OH. A special attention was paid to CD45++CD14- and CD45+CD14 as they characterize the proportion between normal and leukemic lymphocytes in chronic lymphoid leukosis and illustrate the influence of the immunoactive peptide on the proportion. These peculiarities connected with the characteristics of the disease allow investigation of the molecular mechanism of its genesis. In the case of an immune cytopenia most important are the quantitative ratios of CD45++CD14- and CD45+CD14- to CD4-CD8+, their reliable values can be obtained with the help of a cytofluorimeter.
One ml daily, intranasally, once or twice in divided doses, for 5 days. The course was repeated after a 3-week interval. To those patients who received a cytostatic mono- or polychemotherapy, H-Ile-Glu-Trp-OH was administered from the first day of the break in the cytostatic treatment.

[2] = system: CFU-S; test: Regeneration of the CFU-S population in bone marrow of irradiated mice (4 Gy)
Source text: a) Scheme 1: mice received the peptide immediately after irradiation, daily. The mice were divided into groups: a control group--irradiated mice (4 Gy), and test groups--irradiated mice (4 Gy) received the peptide 1, 2, 3, and 4 times daily. Blood samples were taken four hours after the last peptide injection and on the 7th, 10th, and 16th day after the irradiation. Determined were total count of nucleated blood cells (NC) and lymphocyte percentage of them; nucleated cells and the CFU-S population in femoral bone marrow were counted on the 4th, 8th, and the 14th day.
From each group at least five mice were killed, their bone marrow was taken out and used to prepare the cell suspension, which was injected to lethally irradiated mice. After 9 days, CFU-S was counted in irradiated (4 Gy) donors receiving the peptide by counting the colonies grown on spleen. It was noted that with intramuscular administration of the peptide the CFU-S count in irradiated mice bone marrow was steadily growing starting from the 4th day, leaving the control CFU-S far behind.
b) According to scheme 2, the peptide injections were made starting from the 3rd day after the irradiation, at the same time of maximum depletion of the pool of mature nucleated cells and the bone marrow. The groups of mice were formed in the same way as in the previous scheme. Blood samples were taken 4 hours after the last injection i.e. on day 6, as well as on days 11, 14, 18, 21. Tables 9 and 10 present the data on karyocyte and lymphocyte counts in blood (per 1 mm^3) of mice treated according to scheme 2.

[3] = system: CFU-S; test: Endogenous spleen colonies in irradiated mice (6 Gy); conditions: 10 μg/kg IM, Day 9
Description: Test mice were irradiated in the dose of 6 Gy Beginning from the first hour after the irradiation, the mice received once daily IM injections of 10 μg/kg H-Ile-Glu-Trp-OH. Injections were made 1, 2, 3, or 4 times. The mice were killed on Day 9, spleens were taken out and fixed in Buene's solution, the colonies were counted. 110 mice were used in the test.

[4] = Patient 0., * % of cells in mixed population of CD45++CD14- and CD45+CD14-
[5] = Patient S., * % of cells in the CD45+CD14- subpopulation

## H-Ile-Glu-Trp-OH
[1]; Patient 0.
  % of Cells after H-Ile-Glu-Trp-OH Treatment, CD45++CD14- lymphocytes: 28%
  % of Cells after H-Ile-Glu-Trp-OH Treatment, CD45+CD14+ monocytes: 3.6%
  % of Cells after H-Ile-Glu-Trp-OH Treatment, CD45+CD14- granulocytes: 63.8%
  Absolute Count after treatment, CD45++CD14- lymphocytes: 5.8 bln/l
  number of cells with CD45++CD14- markers after treatment: grew three times
[1]; Patient 0. (before: 11.2)
  Lymphocytes absolute after treatment course: 15.4 blnd
[1]; Patient 0. (before: 17.3)
  leukocytes after treatment course: 20.8 blnd
[1]; Patient 0. (before: 65)
  Lymphocytes after treatment course: 74%
[1]; [4]
  % of Cells after H-Ile-Glu-Trp-OH Treatment, CD4+CD8- T-helpers: 8.2%
  % of Cells after H-Ile-Glu-Trp-OH Treatment, CD4-CD8+ T-suppressers: 8.1%
[1]; Patient 0., * mixed population of CD45++CD14- and CD45+CD14-
  CD4+/CD8+ ratio after H-Ile-Glu-Trp-OH Treatment: 1.0
[1]; Patient B.
  % of Cells after H-Ile-Glu-Trp-OH Treatment, CD45++CD14- lymphocytes: 9.5%
  % of Cells after H-Ile-Glu-Trp-OH Treatment, CD45+CD14+ monocytes: 2.1%
  % of Cells after H-Ile-Glu-Trp-OH Treatment, CD45+CD14- granulocytes: 86.4%
  Absolute Count after treatment, CD45++CD14- lymphocytes: 2.52 bln/l
[1]; Patient B. (before: 18.7)
  Lymphocytes absolute after treatment: 21.8 bln/1
[1]; Patient B. (before: 23,0)
  leukocytes after treatment: 26.6 bin/1
[1]; Patient B. (before: 85)
  Lymphocytes after treatment: 82%
[1]; Patient B., marked *
  % of Cells after H-Ile-Glu-Trp-OH Treatment, CD3+CD19- T-lymphocytes: 10.6%
  % of Cells after H-Ile-Glu-Trp-OH Treatment, CD3+HLA-DR+ activated T-lymphoc.: 1.31%
  % of Cells after H-Ile-Glu-Trp-OH Treatment, CD3-CD19+ B-lymphocytes: 85.3%
  % of Cells after H-Ile-Glu-Trp-OH Treatment, CD4+CD8- T-helpers: 6.4%
  % of Cells after H-Ile-Glu-Trp-OH Treatment, CD4-CD8+ T-suppressers: 3.8%
  CD4+/CD8+ ratio after H-Ile-Glu-Trp-OH Treatment: 1.7
[1]; Patient M.
  % of Cells after H-Ile-Glu-Trp-OH Treatment, CD3+CD19- T-lymphocytes: 35.6%
  % of Cells after H-Ile-Glu-Trp-OH Treatment, CD3-CD19+ B-lymphocytes: 61.2%
  % of Cells after H-Ile-Glu-Trp-OH Treatment, CD4+CD8- T-helpers: 11.6%
  % of Cells after H-Ile-Glu-Trp-OH Treatment, CD4-CD8+ T-suppressers: 30.6%
  % of Cells after H-Ile-Glu-Trp-OH Treatment, CD45++CD14- lymphocytes: 43.2%
  % of Cells after H-Ile-Glu-Trp-OH Treatment, CD45+CD14+ monocytes: 4.5%
  % of Cells after H-Ile-Glu-Trp-OH Treatment, CD45+CD14- granulocytes: 47.7%
  Absolute Count after treatment, CD45++CD14- lymphocytes: 3.715 bln/l
  CD4+/CD8+ ratio after H-Ile-Glu-Trp-OH Treatment: 0.4
[1]; Patient M. (before: 3.24)
  Lymphocytes absolute after treatment course: 3.62 bln/1
[1]; Patient M. (before: 7.9)
  leukocytes after treatment course: 8.6 blnA
[1]; Patient M. (before: 41)
  Lymphocytes after treatment course: 42%
[1]; Patient S.
  % of Cells after H-Ile-Glu-Trp-OH Treatment, CD3+CD19- T-lymphocytes: 52.0%
  % of Cells after H-Ile-Glu-Trp-OH Treatment, CD3+HLA-DR+ activated T-lymphoc.: 16.0%
  % of Cells after H-Ile-Glu-Trp-OH Treatment, CD3-CD19+ B-lymphocytes: 40.0%
  % of Cells after H-Ile-Glu-Trp-OH Treatment, CD4+CD8- T-helpers: 27.1%
  % of Cells after H-Ile-Glu-Trp-OH Treatment, CD4-CD8+ T-suppressers: 36.5%
  % of Cells after H-Ile-Glu-Trp-OH Treatment, CD45++CD14- lymphocytes: 13.5%
  % of Cells after H-Ile-Glu-Trp-OH Treatment, CD45+CD14+ monocytes: 0.8%
  % of Cells after H-Ile-Glu-Trp-OH Treatment, CD45+CD14- granulocytes: 78.0%
  Absolute Count after treatment, CD45++CD14- lymphocytes: 9.112 bln/l
  CD4+/CD8+ ratio after H-Ile-Glu-Trp-OH Treatment: 0.7
[1]; Patient S. (before: 48.04)
  Lymphocytes absolute after treatment course: 58.06 bln/1
[1]; Patient S. (before: 57.2)
  leukocytes after treatment course: 67.5 bin/1
[1]; Patient S. (before: 84)
  Lymphocytes after treatment course: 86%
[1]; Patient S., after the treatment
  count of lymphocytes belonging to the population of conventionally normal lymphocytes: doubled
[1]; [5]
  % of Cells after H-Ile-Glu-Trp-OH Treatment, CD3+CD19- T-lymphocytes: 2.6%
  % of Cells after H-Ile-Glu-Trp-OH Treatment, CD3+HLA-DR+ activated T-lymphoc.: 0.5%
  % of Cells after H-Ile-Glu-Trp-OH Treatment, CD3-CD19+ B-lymphocytes: 96.9%
  % of Cells after H-Ile-Glu-Trp-OH Treatment, CD4+CD8- T-helpers: 1.6%
  % of Cells after H-Ile-Glu-Trp-OH Treatment, CD4-CD8+ T-suppressers: 1.9%
[1]; Patient S., * in the CD45+CD14- subpopulation
  CD4+/CD8+ ratio after H-Ile-Glu-Trp-OH Treatment: 0.5
[2]; scheme 1, i.m.
  cellular composition of bone marrow: did not affect
[2]; scheme 1, i.m. (FIG. 1)
  regeneration of the CFU-S population: markedly stimulated regeneration of the CFU-S population
[2]; scheme 2, 1 Time, Day 7
  CFU-S (absolute) in femoral bone marrow: 459 ± 26
[2]; scheme 2, 1 Time, Day 11
  CFU-S (absolute) in femoral bone marrow: 858 ± 67
[2]; scheme 2, 1 Time, Day 14
  CFU-S (absolute) in femoral bone marrow: 1197 ± 75
[2]; scheme 2, 2 Time, Day 7
  CFU-S (absolute) in femoral bone marrow: 298 ± 27
[2]; scheme 2, 2 Time, Day 11
  CFU-S (absolute) in femoral bone marrow: 846 ± 44
[2]; scheme 2, 2 Time, Day 14
  CFU-S (absolute) in femoral bone marrow: 902 ± 56
[2]; scheme 2, 3 Time, Day 7
  CFU-S (absolute) in femoral bone marrow: 305 ± 33
[2]; scheme 2, 3 Time, Day 11
  CFU-S (absolute) in femoral bone marrow: 1077 ± 56
[2]; scheme 2, 3 Time, Day 14
  CFU-S (absolute) in femoral bone marrow: 1166 ± 68
[2]; scheme 2, 4 Time, Day 7
  CFU-S (absolute) in femoral bone marrow: 431 ± 48
[2]; scheme 2, 4 Time, Day 11
  CFU-S (absolute) in femoral bone marrow: 1147 ± 55
[2]; scheme 2, 4 Time, Day 14
  CFU-S (absolute) in femoral bone marrow: 1434 ± 89
[3]; 1 times
  Colony (endogenous spleen colonies): 3.3 ± 0.6
[3]; 2 times
  Colony (endogenous spleen colonies): 4.4 ± 0.5
[3]; 3 times
  Colony (endogenous spleen colonies): 5.0 ± 0.7
[3]; 4 times
  Colony (endogenous spleen colonies): 5.2 ± 0.8
